These results are taken from patent US20230357240A1, “NOVEL N-HETEROCYCLIC BET BROMODOMAIN INHIBITOR, AND PREPARATION METHOD THEREOF AND MEDICAL USE THEREOF” (Chengdu Easton Biopharmaceuticals Co., Ltd., priority 2020, published 2023).

Where two headings read alike, the source gives them in different places.

The series can be described thus: Pharmacokinetic test in SD rats (plasma drug concentration by LC/MS/MS). The series is classed as in vivo. Conditions: rat, 2 mg/kg; for AUC(0-t): read-out: Area under the curve AUClast; for half-life: read-out: Half life T1/2 (converted); for Cmax: read-out: Peak concentration Cmax; for MRT: read-out: Retention time MRT; for Tmax: read-out: Time to peak Tmax. As to the method: EXAMPLE 10 Pharmacokinetic Test of the Compound of the Present Application
SD rats were used as test animals. After gavage administration or tail vein injection of the compound of the present application to the rats, plasma drug concentrations were measured by the LC/MS/MS method at different moments, and pharmacokinetic features of the compound of the present application in the rats was studied.
Source of SD rats: Chengdu Dashuo Experimental Animal Co., Ltd.
Method of administration: single gavage administration and single tail vein injection
Dosage and concentration: 2 mg/kg rat body weight, 0.5 mg/mL
Formulation: 20% β-cyclodextrin solution
Sampling points: 5 min, 15 min, 30 min, 45 min, 1 h, 1.5 h, 2 h, 4 h, 5 h, 6 h, 7 h, 8 h, 9 h and 24 h
Standard curve preparation and sample treatment: 10 mg of the sample to be tested was accurately weighed and added into 1 mL of DMSO for dissolution, and the mixture was used as a stock solution. The stock solution was diluted with 50% (v/v) methanol aqueous solution to prepare standard working solutions having a concentration of 10, 20, 50, 100, 200, 500, 1000 and 2000 ng/mL, respectively. 5 μL of each of the standard working solutions was added to 45 μL of blank rat plasma to prepare standard samples containing the analyte at concentrations of 1.00, 2.00, 5.00, 10.00, 20.00, 50.00, 100.00 and 200.00 ng/mL, 200 μL of methanol (containing internal standard substance: 5 ng/mL memantine hydrochloride) was added to each standard sample, the standard samples were oscillated for 3 minutes and centrifuged at 12000 rpm at 4° C. for 10 minutes, and […] of the supernatant was collected for LC-MS/MS analysis. The test results were calculated by Analyst® software.
Preparation of quality control solution and sample treatment: 10 mg of the sample to be tested was accurately weighed and added into 1 mL of DMSO for dissolution, and the mixture was used as a stock solution. The stock solution was diluted with 50% (v/v) methanol aqueous solution to prepare quality control working solutions having a concentration of 30, 600 and 1600 ng/mL, respectively. 5 μL of each of the quality control working solutions was added to 45 μL of blank rat plasma to prepare quality control samples containing the analyte at concentrations of 3.00, 60.00 and 160.00 ng/mL, 200 μL of methanol (containing internal standard substance: 5 ng/mL memantine hydrochloride) was added to each standard sample, the standard samples were oscillated for 3 minutes and centrifuged at 12000 rpm at 4° C. for 10 minutes, and […] of the supernatant was collected for LC-MS/MS analysis. The test results were calculated by Analyst® software.

As usually defined, the MRT is the average time that molecules of a dose stay in the body. By Tmax is commonly meant the time from dosing to the highest level. Take `CCNC(=O)c1cc2c(-c3sc(C(C)(C)O)cc3N3CCc4ccccc43)cn(C)c(=O)c2[nH]1` [Compound 1, N-ethyl-4-(5-(2-hydroxypropyl-2-yl)-3-(indolin-1-yl)thiophen-2-yl)-6-methyl-7-oxo-6,7-dihydro-1H-pyrrolo[2,3-c]pyridine-2-carboxamide]: where the note is “iv, tail vein injection”, the AUC(0-t) was determined as 327 ng·h/mL, the half-life is 61.8 min, the Cmax is 276 ng/mL and the MRT was 87 min. Moreover, the Tmax (iv, tail vein injection) is 4.8 min. Further, for the setting “po, gavage”, the AUC(0-t) is 250 ng·h/mL, the half-life is 49.8 min, the Cmax is 143 ng/mL and the MRT is 82.2 min. For the same compound, for the setting “po, gavage”, the Tmax was 17.4 min.
